# Results from PubChem BioAssay (NCI).
#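 Dose response: 5 concentrations. Exposure: 48 h. Format: 96-well plates. Endpoint: linear interpolation; highest concentration if not reached. GI50 = concentration required for 50% inhibition of growth. TGI marks complete inhibition of growth.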
# Columns and labels:
# Test in all cases: NCI tumour cell line growth inhibition, 48 h
# HOP-62 NSCLC = tested on: HOP-62 NSCLC
# HT29 colon = tested on: HT29 colon
# MOLT-4 leukemia = tested on: MOLT-4 leukemia
# 786-0 renal = tested on: 786-0 renal
# COLO 205 colon = tested on: COLO 205 colon
# SW-620 colon = tested on: SW-620 colon
# RPMI-8226 leukemia = tested on: RPMI-8226 leukemia
# UACC-257 melanoma = tested on: UACC-257 melanoma
# OVCAR-8 ovarian = tested on: OVCAR-8 ovarian
# SF-268 CNS = tested on: SF-268 CNS
# NCI-H226 lung = tested on: NCI-H226 lung
# LOX IMVI melanoma = tested on: LOX IMVI melanoma
# A498 renal = tested on: A498 renal
# T-47D breast = tested on: T-47D breast
# HS 578T breast = tested on: HS 578T breast
# SF-539 CNS = tested on: SF-539 CNS
# NCI-H460 lung = tested on: NCI-H460 lung
# OVCAR-3 ovarian = tested on: OVCAR-3 ovarian
# CCRF-CEM leukemia = tested on: CCRF-CEM leukemia
# HCT-15 colon = tested on: HCT-15 colon
# SN12C renal = tested on: SN12C renal
# SR leukemia = tested on: SR leukemia
# HL-60(TB) leukemia = tested on: HL-60(TB) leukemia
# BT-549 breast = tested on: BT-549 breast
# IGROV1 ovarian = tested on: IGROV1 ovarian
# M14 melanoma = tested on: M14 melanoma
# SK-MEL-2 melanoma = tested on: SK-MEL-2 melanoma
# ACHN renal = tested on: ACHN renal
# KM12 colon = tested on: KM12 colon
# U251 CNS = tested on: U251 CNS
# SK-OV-3 ovarian = tested on: SK-OV-3 ovarian
# HCT-116 colon = tested on: HCT-116 colon
# OVCAR-4 ovarian = tested on: OVCAR-4 ovarian
# MCF7 breast = tested on: MCF7 breast
# RXF 393 renal = tested on: RXF 393 renal
# PC-3 prostate = tested on: PC-3 prostate
# SNB-19 CNS = tested on: SNB-19 CNS
# SK-MEL-28 melanoma = tested on: SK-MEL-28 melanoma
# DU-145 prostate = tested on: DU-145 prostate
# NCI-H522 lung = tested on: NCI-H522 lung
# OVCAR-5 ovarian = tested on: OVCAR-5 ovarian
# MDA-MB-231 breast = tested on: MDA-MB-231 breast
# CAKI-1 renal = tested on: CAKI-1 renal
# SF-295 CNS = tested on: SF-295 CNS
# UO-31 renal = tested on: UO-31 renal
# MDA-MB-435 = tested on: MDA-MB-435
# TK-10 renal = tested on: TK-10 renal
# A549 NSCLC = tested on: A549 NSCLC
# NCI-H23 lung = tested on: NCI-H23 lung
# HCC-2998 colon = tested on: HCC-2998 colon
# UACC-62 melanoma = tested on: UACC-62 melanoma
# NCI/ADR-RES ovarian = tested on: NCI/ADR-RES ovarian
# SK-MEL-5 melanoma = tested on: SK-MEL-5 melanoma
# SNB-75 CNS = tested on: SNB-75 CNS
# K-562 leukemia = tested on: K-562 leukemia
# EKVX NSCLC = tested on: EKVX NSCLC
structure (smiles),measurement,setting,value
CC(C)(O)/C=C/C(=O)[C@](C)(O)[C@H]1[C@H](O)C[C@@]2(C)[C@H]3CC=C4[C@@H](C[C@H](O)C(=O)C4(C)C)[C@]3(C)C(=O)C[C@]12C,GI50,HOP-62 NSCLC,0.0818 µM
same,TGI,HOP-62 NSCLC,0.419 µM
same,GI50,HT29 colon,0.0258 µM
same,TGI,HT29 colon,> 16.7 µM
same,GI50,MOLT-4 leukemia,1.17 µM
same,TGI,MOLT-4 leukemia,16.3 µM
same,GI50,786-0 renal,0.0511 µM
same,TGI,786-0 renal,0.249 µM
same,GI50,COLO 205 colon,0.0277 µM
same,TGI,COLO 205 colon,> 16.7 µM
same,GI50,SW-620 colon,0.0281 µM
same,TGI,SW-620 colon,> 16.7 µM
same,GI50,RPMI-8226 leukemia,0.0419 µM
same,TGI,RPMI-8226 leukemia,> 6.22 µM
same,GI50,UACC-257 melanoma,0.042 µM
same,TGI,UACC-257 melanoma,0.541 µM
same,GI50,OVCAR-8 ovarian,0.496 µM
same,TGI,OVCAR-8 ovarian,> 16.7 µM
same,GI50,SF-268 CNS,0.0196 µM
same,TGI,SF-268 CNS,0.0882 µM
same,GI50,NCI-H226 lung,0.0296 µM
same,TGI,NCI-H226 lung,4.66 µM
same,GI50,LOX IMVI melanoma,0.18 µM
same,TGI,LOX IMVI melanoma,> 3.52 µM
same,GI50,A498 renal,0.0177 µM
same,TGI,A498 renal,0.0473 µM
same,GI50,T-47D breast,0.217 µM
same,TGI,T-47D breast,> 14 µM
same,GI50,HS 578T breast,0.0529 µM
same,TGI,HS 578T breast,2.73 µM
same,GI50,SF-539 CNS,0.0167 µM
same,TGI,SF-539 CNS,0.13 µM
same,GI50,NCI-H460 lung,0.0247 µM
same,TGI,NCI-H460 lung,> 16.7 µM
same,GI50,OVCAR-3 ovarian,0.0395 µM
same,TGI,OVCAR-3 ovarian,1.02 µM
same,GI50,CCRF-CEM leukemia,0.0208 µM
same,TGI,CCRF-CEM leukemia,> 8.45 µM
same,GI50,HCT-15 colon,0.0344 µM
same,TGI,HCT-15 colon,> 16.7 µM
same,GI50,SN12C renal,0.0466 µM
same,TGI,SN12C renal,> 12.9 µM
same,GI50,SR leukemia,0.0414 µM
same,TGI,SR leukemia,> 16.7 µM
same,GI50,HL-60(TB) leukemia,0.203 µM
same,TGI,HL-60(TB) leukemia,1.46 µM
same,GI50,BT-549 breast,0.0161 µM
same,TGI,BT-549 breast,0.0546 µM
same,GI50,IGROV1 ovarian,0.0707 µM
same,TGI,IGROV1 ovarian,0.46 µM
same,GI50,M14 melanoma,0.0176 µM
same,TGI,M14 melanoma,1.71 µM
same,GI50,SK-MEL-2 melanoma,0.0162 µM
same,TGI,SK-MEL-2 melanoma,0.0525 µM
same,GI50,ACHN renal,0.0537 µM
same,TGI,ACHN renal,> 16.7 µM
same,GI50,KM12 colon,0.113 µM
same,TGI,KM12 colon,> 16.7 µM
same,GI50,U251 CNS,0.0541 µM
same,TGI,U251 CNS,0.262 µM
same,GI50,SK-OV-3 ovarian,0.056 µM
same,TGI,SK-OV-3 ovarian,0.236 µM
same,GI50,HCT-116 colon,0.0243 µM
same,TGI,HCT-116 colon,7.14 µM
same,GI50,OVCAR-4 ovarian,0.00558 µM
same,TGI,OVCAR-4 ovarian,0.0451 µM
same,GI50,MCF7 breast,0.0315 µM
same,TGI,MCF7 breast,> 16.7 µM
same,GI50,RXF 393 renal,0.0143 µM
same,TGI,RXF 393 renal,0.0318 µM
same,GI50,PC-3 prostate,0.283 µM
same,TGI,PC-3 prostate,> 16.7 µM
same,GI50,SNB-19 CNS,0.0752 µM
same,TGI,SNB-19 CNS,3.25 µM
same,GI50,SK-MEL-28 melanoma,0.0139 µM
same,TGI,SK-MEL-28 melanoma,0.0393 µM
same,GI50,DU-145 prostate,0.0367 µM
same,TGI,DU-145 prostate,4.3 µM
same,GI50,NCI-H522 lung,0.0287 µM
same,TGI,NCI-H522 lung,0.184 µM
same,GI50,OVCAR-5 ovarian,0.0429 µM
same,TGI,OVCAR-5 ovarian,> 16.7 µM
same,GI50,MDA-MB-231 breast,0.0281 µM
same,TGI,MDA-MB-231 breast,0.307 µM
same,GI50,CAKI-1 renal,0.0137 µM
same,TGI,CAKI-1 renal,0.0499 µM
same,GI50,SF-295 CNS,0.102 µM
same,TGI,SF-295 CNS,0.872 µM
same,GI50,UO-31 renal,0.0432 µM
same,TGI,UO-31 renal,0.312 µM
same,GI50,MDA-MB-435,0.022 µM
same,TGI,MDA-MB-435,5.77 µM
same,GI50,TK-10 renal,0.0307 µM
same,TGI,TK-10 renal,0.0895 µM
same,GI50,A549 NSCLC,0.0511 µM
same,TGI,A549 NSCLC,> 16.7 µM
same,GI50,NCI-H23 lung,0.45 µM
same,TGI,NCI-H23 lung,> 16.7 µM
same,GI50,HCC-2998 colon,0.118 µM
same,TGI,HCC-2998 colon,> 16.7 µM
same,GI50,UACC-62 melanoma,0.0263 µM
same,TGI,UACC-62 melanoma,3.72 µM
same,GI50,NCI/ADR-RES ovarian,0.0714 µM
same,GI50,SK-MEL-5 melanoma,0.058 µM
same,TGI,SK-MEL-5 melanoma,2.31 µM
same,GI50,SNB-75 CNS,0.0289 µM
same,TGI,SNB-75 CNS,0.108 µM
same,GI50,K-562 leukemia,0.0394 µM
same,TGI,K-562 leukemia,> 16.7 µM
same,GI50,EKVX NSCLC,0.0458 µM
same,TGI,EKVX NSCLC,> 16.7 µM
